From paper PMC4030617 (Biochemistry, 2009)
Converted amounts (≈) assume the structure as drawn. “And” between values parts separate entries of the source, which are not always exact repeats. Equal values may be shown once.

Tests used:
[1] = tested on: E. coli DH10B expressing SHV Asn276 variants; assay: MIC, agar dilution, all Asn276 variants taken together; details: for MIC of Asn276 variants compared to SHV-1: all Asn276 variants vs SHV-1, in words
SHV-1 β-lactamase [2] = molecular target: T1, SHV-1 β-lactamase (Klebsiella pneumoniae, UniProt P0AD64); assay: biochemical
[3] = molecular target: T2, SHV Asn276Asp β-lactamase (Klebsiella pneumoniae, UniProt P0AD64, N270D); assay: Direct competition assay against nitrocefin; assay type: biochemical; details: for increase in Ki for Asn276Asp as compared to SHV-1: Asn276Asp vs SHV-1
[4] = tested on: E. coli DH10B expressing SHV Asn276Lys, -Arg, -Tyr, -Phe; assay: microbe, parasite or virus in culture; assay type: cell-based; details: Escherichia coli
[5] = tested on: E. coli DH10B expressing SHV Asn276Ala, -Leu, -Ile; assay: microbe, parasite or virus in culture; assay type: cell-based; details: Escherichia coli
[6] = tested on: E. coli DH10B expressing SHV Asn276Pro, -Trp; assay: microbe, parasite or virus in culture; assay type: cell-based; details: Escherichia coli
[7] = tested on: E. coli DH10B expressing SHV Asn276Ser; assay: microbe, parasite or virus in culture; assay type: cell-based; details: Escherichia coli
[8] = tested on: E. coli DH10B expressing SHV-1; assay: MIC, agar dilution, strain expressing SHV-1; details: Escherichia coli
[9] = tested on: E. coli DH10B expressing SHV Asn276Thr; assay: microbe, parasite or virus in culture; assay type: cell-based; details: Escherichia coli
[10] = tested on: E. coli DH10B expressing SHV Asn276Val; assay: microbe, parasite or virus in culture; assay type: cell-based; details: Escherichia coli
[11] = molecular target: T2, SHV Asn276Asp β-lactamase; assay: Steady-state substrate hydrolysis kinetics, Asn276Asp; assay type: biochemical; details: for Km: PBS pH 7.4, room temperature
E. coli DH10B = assay: MIC, lysogeny broth agar dilution, host strain; details: Escherichia coli
[12] = tested on: E. coli DH10B expressing SHV Asn276Gly; assay: microbe, parasite or virus in culture; assay type: cell-based; details: Escherichia coli
[13] = tested on: E. coli DH10B expressing SHV Asn276Asp; assay: microbe, parasite or virus in culture; assay type: cell-based; details: Escherichia coli
[14] = tested on: E. coli DH10B expressing SHV Asn276His; assay: microbe, parasite or virus in culture; assay type: cell-based; details: Escherichia coli
[15] = tested on: E. coli DH10B expressing SHV Asn276Gln, -Glu, -Cys; assay: microbe, parasite or virus in culture; assay type: cell-based; details: Escherichia coli
[16] = tested on: E. coli DH10B expressing SHV Asn276Met; assay: microbe, parasite or virus in culture; assay type: cell-based; details: Escherichia coli
[17] = tested on: O=C(Cc1cccs1)N[C@@H]1C(=O)N2C(C(=O)O)=C(/C=C/c3ccc([N+](=O)[O-])cc3[N+](=O)[O-])CS[C@H]12; assay: purified protein, by the assay type; details: other: SHV-1, substrate hydrolysis, PBS pH 7.4, room temperature
[18] = tested on: CCN1CCN(C(=O)N[C@@H](C(=O)N[C@@H]2C(=O)N3[C@@H]2SC(C)(C)[C@@H]3C(=O)O)c2ccccc2)C(=O)C1=O; assay: purified protein, by the assay type; details: other: SHV-1, substrate hydrolysis, PBS pH 7.4, room temperature
[19] = tested on: CC(=O)OCC1=C(C(=O)O)N2C(=O)[C@@H](NC(=O)Cc3cccs3)[C@H]2SC1; assay: purified protein, by the assay type; details: other: SHV-1, substrate hydrolysis, PBS pH 7.4, room temperature
[20] = tested on: CC1(C)S[C@@H]2[C@H](NC(=O)[C@H](N)c3ccccc3)C(=O)N2[C@H]1C(=O)O; assay: purified protein, by the assay type; details: other: SHV-1, substrate hydrolysis, PBS pH 7.4, room temperature
[21] = molecular target: T2, SHV Asn276Asp β-lactamase; assay: Partition ratio; assay type: biochemical; details: rate of inhibitor hydrolysis, calculated
SHV-1 β-lactamase [22] = molecular target: T1, SHV-1 β-lactamase; assay type: biochemical
[23] = molecular target: T2, SHV Asn276Asp β-lactamase; assay: Inactivation kinetics; assay type: biochemical; details: Asn276Asp vs SHV-1

## C[C@@H](O)[C@H]1C(=O)N2C(C(=O)O)=C(S[C@@H]3CN[C@H](C(=O)N(C)C)C3)[C@H](C)[C@H]12 [meropenem]
[1]
  MIC of Asn276 variants compared to SHV-1: comparable to SHV-1
SHV-1 β-lactamase [2]
  Ki: 31 ± 3 µM
[3]
  increase in Ki for Asn276Asp as compared to SHV-1: 46 fold
[3]; Ki, Asn276Asp, competition with NCF, corrected for NCF affinity
  Ki: 1411 ± 14 µM

## CO/N=C(\C(=O)N[C@@H]1C(=O)N2C(C(=O)O)=C(COC(C)=O)CS[C@H]12)c1csc(N)n1 [cefotaxime]
[1]
  MIC of Asn276 variants compared to SHV-1: comparable to SHV-1

## CCN1CCN(C(=O)N[C@@H](C(=O)N[C@@H]2C(=O)N3[C@@H]2SC(C)(C)[C@@H]3C(=O)O)c2ccccc2)C(=O)C1=O [piperacillin]
[4]
  MIC: 8 to 16 µg/mL (≈ 15.5 to 30.9 µM)
[5]
  MIC: 16 to 32 µg/mL (≈ 30.9 to 61.8 µM)
[6]
  MIC: 2 to 4 µg/mL (≈ 3.86 to 7.73 µM)
[7]
  MIC: 512 µg/mL (≈ 989 µM)
[8]
  MIC: 2050 µg/mL (≈ 3960 µM)
[9]
  MIC: 128 to 256 µg/mL (≈ 247 to 495 µM)
[10]
  MIC: 512 µg/mL (≈ 989 µM)
[11]
  kcat: 976 ± 98 s⁻¹
  Km: 105 ± 18 µM
E. coli DH10B
  MIC: 1 µg/mL (≈ 1.93 µM)
[12]
  MIC: 256 µg/mL (≈ 495 µM)
[13]
  MIC: 512 µg/mL (≈ 989 µM)
[14]
  MIC: 256 µg/mL (≈ 495 µM)
[15]
  MIC: 64 to 128 µg/mL (≈ 124 to 247 µM)
[16]
  MIC: 4 µg/mL (≈ 7.73 µM)

## SHV-1 β-lactamase (Klebsiella pneumoniae)
[17]
  Km: 21 ± 3 µM
  kcat: 237 ± 24 s⁻¹
  kcat/Km: 1.1e+07 ± 2e+06 M⁻¹ s⁻¹
[18]
  Km: 77 ± 7 µM
  kcat: 898 ± 90 s⁻¹
  kcat/Km: 1.2e+07 ± 1e+06 M⁻¹ s⁻¹
[19]
  Km: 29 ± 1 µM
  kcat: 14 ± 1 s⁻¹
  kcat/Km: 470000 ± 30000 M⁻¹ s⁻¹
[20]
  Km: 183 ± 34 µM
  kcat: 3100 ± 300 s⁻¹
  kcat/Km: 1.7e+07 ± 4e+06 M⁻¹ s⁻¹

## O=C(Cc1cccs1)N[C@@H]1C(=O)N2C(C(=O)O)=C(/C=C/c3ccc([N+](=O)[O-])cc3[N+](=O)[O-])CS[C@H]12 [Nitrocefin, nitrocefin]
[11]
  kcat: 137 ± 14 s⁻¹
  Km: 28 ± 3 µM

## CC1(C)S[C@@H]2[C@H](NC(=O)[C@H](N)c3ccccc3)C(=O)N2[C@H]1C(=O)O [ampicillin]
[4]
  MIC: 64 µg/mL (≈ 183 µM)
[5]
  MIC: 256 to 512 µg/mL (≈ 733 to 1470 µM)
[6]
  MIC: 8 to 16 µg/mL (≈ 22.9 to 45.8 µM)
[7]
  MIC: 4100 µg/mL (≈ 11700 µM)
[8]
  MIC: > 16400 µg/mL
[9]
  MIC: 1020 to 2050 µg/mL (≈ 2930 to 5860 µM)
[10]
  MIC: 2050 µg/mL (≈ 5860 µM)
[11]
  kcat: 989 ± 99 s⁻¹
  Km: 134 ± 13 µM
E. coli DH10B
  MIC: 1 µg/mL (≈ 2.86 µM)
[12]
  MIC: 4100 µg/mL (≈ 11700 µM)
[13]
  MIC: 8190 µg/mL (≈ 23400 µM)
[14]
  MIC: 1020 µg/mL (≈ 2930 µM)
[15]
  MIC: 1020 to 2050 µg/mL (≈ 2930 to 5860 µM)
[16]
  MIC: 32 µg/mL (≈ 91.6 µM)

## CC(=O)OCC1=C(C(=O)O)N2C(=O)[C@@H](NC(=O)Cc3cccs3)[C@H]2SC1 [cephalothin]
[4]
  MIC: 4 to 8 µg/mL (≈ 10.1 to 20.2 µM)
[5]
  MIC: 4 to 8 µg/mL (≈ 10.1 to 20.2 µM)
[6]
  MIC: 4 to 8 µg/mL (≈ 10.1 to 20.2 µM)
[7]
  MIC: 16 µg/mL (≈ 40.4 µM)
[8]
  MIC: 64 to 128 µg/mL (≈ 161 to 323 µM)
[9]
  MIC: 8 to 16 µg/mL (≈ 20.2 to 40.4 µM)
[10]
  MIC: 16 µg/mL (≈ 40.4 µM)
[11]
  kcat: 10 ± 1 s⁻¹
  Km: 83 ± 11 µM
E. coli DH10B
  MIC: 4 µg/mL (≈ 10.1 µM)
[1]; each of the variants at Asn276
  MIC, range over the variants at Asn276: 4 to 16 µg/mL
[12]
  MIC: 16 µg/mL (≈ 40.4 µM)
[13]
  MIC: 8 to 16 µg/mL (≈ 20.2 to 40.4 µM)
[14]
  MIC: 16 µg/mL (≈ 40.4 µM)
[15]
  MIC: 8 to 16 µg/mL (≈ 20.2 to 40.4 µM)
[16]
  MIC: 4 µg/mL (≈ 10.1 µM)

## O=C(O)[C@H]1/C(=C/CO)O[C@@H]2CC(=O)N21 [clavulanate]
[21]
  kcat: 0.75 ± 0.18 s⁻¹
[3]
  increase in Ki for Asn276Asp as compared to SHV-1: 5 fold and 5.4 fold
SHV-1 β-lactamase [22]
  kcat: 0.60 ± 0.17 s⁻¹
[23]
  increase in KI for Asn276Asp as compared to SHV-1: 1.6 fold
